Experimental findings from patent US4866055A, “Cephalosporin derivatives and their crystalline derivatives” (Mochida Pharmaceutical Co., Ltd., priority 1986, dated 1989) are described below.

Molecules are shown by their SMILES. ≈ marks a conversion by molar mass, not a printed value. Where two headings read alike, the source gives them in different places.

A short description of one data set: Solubility. Type of data set: physicochemical. The conditions noted are these: trisodium salt, amorphous solid; for parenteral use.
A short description of the next data set: Stability (storage). Type of data set: physicochemical.
Data set [1] is described as follows: Acute toxicity, LD50 by the Probit method. The conditions noted are these: in vivo, iv. How it is done:
Next, LD50 of representative examples of the compounds of the present invention is shown in Table 3 herein LD50 was determined in accordance with the Probit method.

The test system of data set [2] is Staphylococcus aureus 242. Briefly: Protection against systemic infection in mice. Type of data set: in vivo, ICR mice. The conditions noted are these: 168 h. How it is done: (§1) Protection ability against systemic infection was determined as follows. An aqueous suspension of test bacteria was intraperitoneally injected into 10 four week old ICR mice. One hour after the infection, test compounds were intravenously administered. The number of surviving mice was counted 1 week after injection to determine the dose at which 50% of the test animals were alive (ED50 : mg/kg).

Data set [3] has as its system Klebsiella pneumoniae IFO 3317. Briefly: Protection against systemic infection in mice. It counts as in vivo, ICR mice. The conditions noted are these: for ED50: IFO3317, iv, 168 h. How it is done: as §1
A further data set deals with Escherichia coli 67. Kind of data set: Protection against systemic infection in mice. Type of data set: in vivo, ICR mice. The conditions noted are these: iv, 168 h, i.p. infection, i.v. compound 1 hour after infection, survival at 1 week. How it is done:
as §1

Data set [4] deals with Pseudomonas aeruginosa 13. Briefly: Protection against systemic infection in mice. Type of data set: in vivo, ICR mice. The conditions noted are these: for ED50: 168 h. How it is done: as §1
Data set [5] concerns Proteus mirabilis IFO 3849. Kind of data set: Protection against systemic infection in mice. The conditions noted are these: IFO3849, iv, 168 h. It counts as in vivo, ICR mice. As to the method:
as §1

For the next data set, the system named is Serratia marcescens 274. Kind of data set: Protection against systemic infection in mice. The conditions noted are these: 168 h. It counts as in vivo, ICR mice. How it is done:
as §1

For data set [6], the system named is Escherichia coli NIHJ JC 2. Briefly: Antibacterial activity in vitro, agar plate dilution method (MIC). Type of data set: cell-based. The conditions noted are these: NIHJJC2, 37° C., 20 hours, Mueller Hinton agar. As to the method:
(§2) Antibacterial activity in vitro was determined in accordance with the agar plate dilution method.
(§3) A platinum loop each of test bacteria (10^6 cells/ml), cultured in Mueller Hinton broth, was inoculated on Mueller Hinton agar plates which contained test compounds at various concentrations. After cultivating at 37° C. for 20 hours, the minimum inhibitory concentration (MIC μg/ml) was determined.

In data set [7] the test system is Proteus morganii IFO 3848. The description is as above. It counts as cell-based. The conditions noted are these: Morganella morganii. As to the method:
as §2, §3

Data set [8] relates to Klebsiella pneumoniae IFO 3317. Described as above. Type of data set: cell-based. How it is done: as §2, §3
The test system of data set [9] is Pseudomonas aeruginosa 13. The description is as above. Type of data set: cell-based. How it is done:
as §2, §3

For data set [10], the system named is Serratia marcescens IFO 3759. The data set is described as above. It counts as cell-based. As to the method:
as §2, §3

In data set [11] the test system is bacterial strains except Pseudomonas aeruginosa. Briefly: Antibacterial activity in vitro, agar plate dilution method, all strains except Pseudomonas aeruginosa. Type of data set: cell-based. The conditions noted are these: Tables 1-a through 1-b. As to the method: as §2, §3
A further data set has as its system experimental infection. Briefly: Protection of animals from experimental infection (overall). Type of data set: in vivo, ICR mice. The conditions noted are these: Tables 2-a through 2-b, vs reference compound. How it is done: as §1
The test system of data set [12] is Staphylococcus aureus Smith. Briefly: Antibacterial activity in vitro, agar plate dilution method (MIC). The conditions noted are these: 37° C., 20 hours, Mueller Hinton agar. Type of data set: cell-based. As to the method:
as §2, §3

The mark [13] stands for this setting: iv, Staphylococcus aureus 242, i.p. infection, i.v. compound 1 hour after infection, survival at 1 week, read-out: ED50.
Setting [14] is: Klebsiella pneumoniae IFO 3317, i.p. infection, i.v. compound 1 hour after infection, survival at 1 week, read-out: ED50.
Where [15] appears, read: iv, Pseudomonas aeruginosa 13, i.p. infection, i.v. compound 1 hour after infection, survival at 1 week, read-out: ED50.
The mark [16] stands for this setting: Proteus mirabilis IFO 3849, i.p. infection, i.v. compound 1 hour after infection, survival at 1 week, read-out: ED50.
The mark [17] stands for this setting: iv, Serratia marcescens 274, i.p. infection, i.v. compound 1 hour after infection, survival at 1 week, read-out: ED50.
Setting [18] is: IFO3848, Proteus morganii IFO 3848, 37° C., 20 hours, Mueller Hinton agar, read-out: MIC.
Setting [19] is: IFO3317, Klebsiella pneumoniae IFO 3317, 37° C., 20 hours, Mueller Hinton agar, read-out: MIC.
Where [20] appears, read: Pseudomonas aeruginosa 13, 37° C., 20 hours, Mueller Hinton agar, read-out: MIC.
The mark [21] stands for this setting: IFO3759, Serratia marcescens IFO 3759, 37° C., 20 hours, Mueller Hinton agar, read-out: MIC.

Take `Cc1cc(SCC2=C(C(=O)[O-])N3C(=O)[C@@H](NC(=O)/C(=N\OCc4cc(O)c(O)cc4C(=O)[O-])c4csc(N)n4)[C@H]3SC2)n2nc(C(=O)[O-])nc2n1.[Na+].[Na+].[Na+]`: in “Solubility”, the solubility entry was “excellent solubility”. In the data set “Stability (storage)” (as bulk materials or as parenteral preparations), the stability entry is listed as “not necessarily sufficient”.

By LD50 is commonly meant the dose expected to kill half of the subjects tested. A high value points to lower toxicity. A word on the ED50: it is the midpoint of the dose-response relation. What is called MIC is the lowest concentration found to suppress growth. In [1], `CC(C)(O/N=C(\C(=O)N[C@@H]1C(=O)N2C(C(=O)[O-])=C(C[n+]3ccccc3)CS[C@H]12)c1csc(N)n1)C(=O)O` [CAZ, Ceftazidime] returned an LD50 above 4000 mg/kg. Besides, the ED50 in [2] (Staphylococcus aureus, 242, iv) was above 100 mg/kg; in data set [3] (Klebsiella pneumoniae), 10.6 mg/kg; in the data set with Escherichia coli 67 it was 6.48 mg/kg; in data set [4] (Pseudomonas aeruginosa, 13, iv) it was 145 mg/kg; in data set [5] (Proteus mirabilis), 4.36 mg/kg; with Serratia marcescens 274 (Serratia marcescens, 274, iv) it was 3.62 mg/kg. Moreover, the MIC in data set [6] was 0.2 µg/mL (≈ 0.366 µM); in [7] (IFO3848, 20 h) it was 0.2 µg/mL (≈ 0.366 µM); in [8] (Klebsiella pneumoniae, IFO3317, 20 h), at most 0.05 µg/mL; in data set [9] (Pseudomonas aeruginosa, 13, 20 h), 1.56 µg/mL (≈ 2.85 µM); in [10] (Serratia marcescens, IFO3759, 20 h) it was at most 0.05 µg/mL.

Regarding `Cn1nnnc1SCC1=C(C(=O)O)N2C(=O)[C@@H](NC(=O)[C@H](O)c3ccccc3)[C@H]2SC1` [CMD, Cefamandole], the median effective dose (ED50) in data set [2] (setting [13]) stood at 8.94 mg/kg.

Turning to `Cc1cc(SCC2=C(C(=O)O)N3C(=O)[C@@H](NC(=O)/C(=N\OCc4cc(O)c(O)cc4C(=O)O)c4csc(N)n4)[C@H]3SC2)n2nc(C(=O)O)nc2n1` [Compound 1, (6R,7R)-7-[2-(2-amino-4-thiazolyl)-2-[Z-[(2-carboxy-4,5-dihydroxyphenyl)methyl]oxyimino]acetamido]-3-[(2-carboxy-5-methyl-s-triazolo[1,5-a]pyrimidin-7-yl)thiomethyl]-8-oxo-5-thia-1-azabicyclo[4.2.0]-oct-2-ene-2-carboxylic acid], the LD50 in data set [1] is above 4000 mg/kg. In data set [11], the “potency relative to the reference compound in vitro” value is listed as “about equipotent to the reference compound”. The ED50 in [2] (setting [13]) came to 7.68 mg/kg; in data set [3] (setting [14]) it was 0.27 mg/kg; in the data set on Escherichia coli 67, 1.05 mg/kg; in [4] (setting [15]) it was 61.8 mg/kg; in data set [5] (setting [16]), 5.07 mg/kg; with Serratia marcescens 274 (setting [17]) it was 0.77 mg/kg. For the same compound, the “times as potent as the reference compound” value in data set [3] (infection with Klebsiella pneumoniae, vs reference compound) is given as “more than 10 times”; in data set [4] (infection with Pseudomonas aeruginosa, vs reference compound) it was “more than 10 times”; in data set [9] (MIC, Pseudomonas aeruginosa, vs reference compound) it was “more than 10 times”. Moreover, the “potency in protecting the animals from experimental infection relative to the reference compound” value with experimental infection is given as “evidently more potent than the reference compound”. Besides, the MIC in [6] was 0.39 µg/mL (≈ 0.515 µM); in data set [7] (setting [18]), 0.39 µg/mL (≈ 0.515 µM); in [12], 1.56 µg/mL (≈ 2.06 µM); in [8] (setting [19]) it was at most 0.05 µg/mL; in data set [9] (setting [20]), 0.1 µg/mL (≈ 0.132 µM); in [10] (setting [21]) it was 0.1 µg/mL (≈ 0.132 µM). Further, in data set [9] (MIC, Pseudomonas aeruginosa, vs Ceftazidime), the “times as potent as Ceftazidime” value is listed as “more than 10 times”.

Turning to `CC(=O)Oc1cc(C(=O)O)c(CO/N=C(\C(=O)N[C@@H]2C(=O)N3C(C(=O)O)=C(CSc4cc(C)nc5nc(C(=O)O)nn45)CS[C@H]23)c2csc(N)n2)cc1O` [Reference compound, (6R,7R)-7-[2-(2-amino-4-thiazolyl)-2-[Z-[(4-acetoxy-2-carboxy-5-hydroxyphenyl)methy]oxyimino]acetamido]-3-[(2-caboxy-5-methyl-s-triazolo[1,5-a]pyrimidin-7-yl)thiomethyl]-8-oxo-5-thia-1-azabicyclo[4.2.0]oct-2-ene-2-carboxylicacid], the ED50 in [2] (setting [13]) was 12.4 mg/kg; in data set [3] (setting [14]), 3.58 mg/kg; in the data set on Escherichia coli 67, 7.66 mg/kg; in [4] (setting [15]), above 500 mg/kg; in data set [5] (setting [16]) it was 20.1 mg/kg; in the data set on Serratia marcescens 274 (setting [17]), 2.56 mg/kg. The MIC is 0.39 µg/mL (≈ 0.488 µM) in [6]; 0.2 µg/mL (≈ 0.25 µM) in data set [7] (setting [18]); 1.56 µg/mL (≈ 1.95 µM) in data set [12]; at most 0.05 µg/mL in [8] (setting [19]); 1.56 µg/mL (≈ 1.95 µM) in data set [9] (setting [20]); at most 0.05 µg/mL in [10] (setting [21]).

In the case of `Cc1cc(SCC2=C(C(=O)O)N3C(=O)[C@@H](NC(=O)/C(=N\OCc4cc(O)c(O)cc4C(=O)O)c4csc(N)n4)[C@H]3SC2)n2nc(C(=O)O)nc2n1` [crystalline hydrated compound, crystalline hydrated (6R,7R)-7-[2-(2-amino-4-thiazol-yl)-2-[Z-[(2-carboxy-4,5-dihydroxyphenyl)methyl]oxyimino]acetamido]-3-[(2-carboxy-5-methyl-s-triazolo[1,5-a]pyrimidin-7-yl)thiomethyl]-8-oxo-5-thia-1-azabicyclo[4.2.0]oct-2-ene-2-carboxylic acid], in “Stability (storage)” (crystalline hydrate), the stability on storage entry is recorded as “increased stability on storage”.
